Measured values reported in PubChem BioAssay AID248 (DTP/NCI, 2004).
Where “and” joins values, the source holds several entries; their conditions need not be identical. Identical values can stand only once. Toxic doses and inconclusive results are not listed.

Tested on: L1210 leukemia ip in BDF1 mice, survival T/C
Experiment: NCI In Vivo Anticancer Drug Screen. Data for tumor model L1210 Leukemia (intraperitoneal) in B6D2F1 (BDF1) mice
Conditions: higher = longer survival
Outline: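 Transplanted-tumor mice were given test agent; controls received vehicle only. Survival readings from the two groups were divided (treated over control).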

O=C(Nc1ccc(C(=O)c2ccccc2)cc1)c1ccc(C(=O)Nc2ccc(C(=O)c3ccccc3)cc2)cc1
T/C (endpoint: mean survival time, dose: 100.0 mg/kg/injection, schedule: Q01DX001 (ip), vehicle: other): 93 % of control
T/C (endpoint: mean survival time, dose: 200.0 mg/kg/injection, schedule: Q01DX001 (ip), vehicle: other): 86 % of control
T/C (endpoint: mean survival time, dose: 400.0 mg/kg/injection, schedule: Q01DX001 (ip), vehicle: other): 89 % of control

N=c1ccn2c(n1)OC1C(O)C(CO)OC12 (stereo unspecified)
T/C (endpoint: mean survival time, dose: 0.79 mg/kg/injection, schedule: Q03HX024 (ip), vehicle: water): 110 % of control
T/C (endpoint: mean survival time, dose: 1.56 mg/kg/injection, schedule: Q01DX009 (ip), vehicle: water): 103 % of control
T/C (endpoint: mean survival time, dose: 3.13 mg/kg/injection, schedule: Q01DX009 (ip), vehicle: water): 110 % of control
T/C (endpoint: mean survival time, dose: 100.0 mg/kg/injection, schedule: Q04DX003 (ip), vehicle: water): 169 % of control
T/C (endpoint: mean survival time, dose: 118.0 mg/kg/injection, schedule: Q01DX009 (ip), vehicle: clinical formulation): 203 % of control
T/C (endpoint: mean survival time, dose: 118.0 mg/kg/injection, schedule: Q01DX009 (ip), vehicle: saline): 195 % of control
T/C (endpoint: mean survival time, dose: 177.0 mg/kg/injection, schedule: Q01DX009 (ip), vehicle: clinical formulation): 213 % of control
T/C (endpoint: mean survival time, dose: 177.0 mg/kg/injection, schedule: Q01DX009 (ip), vehicle: saline): 230 % of control
T/C (endpoint: mean survival time, dose: 200.0 mg/kg/injection, schedule: Q04DX003 (ip), vehicle: water): 180 % of control
T/C (endpoint: mean survival time, dose: 266.0 mg/kg/injection, schedule: Q01DX009 (ip), vehicle: clinical formulation): 250 % of control
T/C (endpoint: mean survival time, dose: 266.0 mg/kg/injection, schedule: Q01DX009 (ip), vehicle: saline): 258 % of control
T/C (endpoint: mean survival time, dose: 400.0 mg/kg/injection, schedule: Q01DX009 (ip), vehicle: clinical formulation): 254 % of control
T/C (endpoint: mean survival time, dose: 400.0 mg/kg/injection, schedule: Q01DX009 (ip), vehicle: saline): 246 % of control
T/C (endpoint: mean survival time, dose: 400.0 mg/kg/injection, schedule: Q04DX003 (ip), vehicle: water): 215 % of control
T/C (endpoint: mean survival time, dose: 600.0 mg/kg/injection, schedule: Q01DX009 (ip), vehicle: clinical formulation): 101 % of control
T/C (endpoint: mean survival time, dose: 1200.0 mg/kg/injection, schedule: Q01DX001 (ip), vehicle: saline): 158 % of control
T/C (endpoint: mean survival time, dose: 1600.0 mg/kg/injection, schedule: Q01DX001 (ip), vehicle: saline): 154 % of control and 161 % of control and 166 % of control
T/C (endpoint: mean survival time, dose: 2000.0 mg/kg/injection, schedule: Q01DX001 (ip), vehicle: saline): 161 % of control and 170 % of control and 172 % of control
T/C (endpoint: median survival time, dose: 5.0 mg/kg/injection, schedule: Q03HX008 (ip), vehicle: saline): 161 % of control
T/C (endpoint: median survival time, dose: 12.5 mg/kg/injection, schedule: Q01DX009 (ip), vehicle: saline): 157 % of control
T/C (endpoint: median survival time, dose: 25.0 mg/kg/injection, schedule: Q01DX009 (ip), vehicle: saline): 178 % of control
T/C (endpoint: median survival time, dose: 25.0 mg/kg/injection, schedule: Q03HX024 (ip), vehicle: water): 170 % of control and 250 % of control
T/C (endpoint: median survival time, dose: 50.0 mg/kg/injection, schedule: Q01DX009 (ip), vehicle: saline): 184 % of control
T/C (endpoint: median survival time, dose: 50.0 mg/kg/injection, schedule: Q01DX009 (ip), vehicle: steriod suspending solution): 170 % of control
T/C (endpoint: median survival time, dose: 50.0 mg/kg/injection, schedule: Q03HX016 (ip), vehicle: saline): 211 % of control
T/C (endpoint: median survival time, dose: 50.0 mg/kg/injection, schedule: Q03HX024 (ip), vehicle: saline): 255 % of control
T/C (endpoint: median survival time, dose: 50.0 mg/kg/injection, schedule: Q03HX024 (ip), vehicle: water): 205 % of control and 230 % of control
T/C (endpoint: median survival time, dose: 100.0 mg/kg/injection, schedule: Q01DX009 (ip), vehicle: saline): 190 % of control and 205 % of control
T/C (endpoint: median survival time, dose: 100.0 mg/kg/injection, schedule: Q01DX009 (ip), vehicle: steriod suspending solution): 185 % of control
T/C (endpoint: median survival time, dose: 100.0 mg/kg/injection, schedule: Q01DX009 (oral), vehicle: saline): 166 % of control
T/C (endpoint: median survival time, dose: 100.0 mg/kg/injection, schedule: Q03HX008 (ip), vehicle: saline): 155 % of control
T/C (endpoint: median survival time, dose: 100.0 mg/kg/injection, schedule: Q03HX016 (ip), vehicle: saline): 233 % of control
T/C (endpoint: median survival time, dose: 100.0 mg/kg/injection, schedule: Q03HX024 (ip), vehicle: saline): 322 % of control
T/C (endpoint: median survival time, dose: 100.0 mg/kg/injection, schedule: Q03HX024 (ip), vehicle: water): 250 % of control and 270 % of control
T/C (endpoint: median survival time, dose: 100.0 mg/kg/injection, schedule: Q04DX003 (oral), vehicle: water): 111 % of control
T/C (endpoint: median survival time, dose: 108.0 mg/kg/injection, schedule: Q01DX008 (ip), vehicle: water): 179 % of control
T/C (endpoint: median survival time, dose: 120.0 mg/kg/injection, schedule: Q01DX001 (ip), vehicle: water): 166 % of control
T/C (endpoint: median survival time, dose: 160.0 mg/kg/injection, schedule: Q01DX001 (ip), vehicle: water): 166 % of control
T/C (endpoint: median survival time, dose: 180.0 mg/kg/injection, schedule: Q01DX008 (ip), vehicle: water): 182 % of control
T/C (endpoint: median survival time, dose: 200.0 mg/kg/injection, schedule: Q01DX001 (ip), vehicle: saline): 122 % of control
T/C (endpoint: median survival time, dose: 200.0 mg/kg/injection, schedule: Q01DX001 (ip), vehicle: water): 105 % of control
T/C (endpoint: median survival time, dose: 200.0 mg/kg/injection, schedule: Q01DX009 (ip), vehicle: saline): 219 % of control and 222 % of control and 234 % of control
T/C (endpoint: median survival time, dose: 200.0 mg/kg/injection, schedule: Q01DX009 (ip), vehicle: steriod suspending solution): 235 % of control
T/C (endpoint: median survival time, dose: 200.0 mg/kg/injection, schedule: Q01DX009 (oral), vehicle: saline): 188 % of control
T/C (endpoint: median survival time, dose: 200.0 mg/kg/injection, schedule: Q03HX008 (ip), vehicle: saline): 177 % of control
T/C (endpoint: median survival time, dose: 200.0 mg/kg/injection, schedule: Q03HX016 (ip), vehicle: saline): 255 % of control
T/C (endpoint: median survival time, dose: 200.0 mg/kg/injection, schedule: Q03HX024 (oral), vehicle: water): 116 % of control
T/C (endpoint: median survival time, dose: 200.0 mg/kg/injection, schedule: Q04DX003 (ip), vehicle: saline): 177 % of control
T/C (endpoint: median survival time, dose: 200.0 mg/kg/injection, schedule: Q04DX003 (ip), vehicle: water): 160 % of control
T/C (endpoint: median survival time, dose: 216.0 mg/kg/injection, schedule: Q01DX009 (ip), vehicle: water): 100 % of control and 105 % of control
T/C (endpoint: median survival time, dose: 300.0 mg/kg/injection, schedule: Q01DX008 (ip), vehicle: water): 202 % of control
T/C (endpoint: median survival time, dose: 300.0 mg/kg/injection, schedule: Q01DX009 (ip), vehicle: saline): 221 % of control
T/C (endpoint: median survival time, dose: 360.0 mg/kg/injection, schedule: Q01DX009 (ip), vehicle: water): 104 % of control and 111 % of control
T/C (endpoint: median survival time, dose: 400.0 mg/kg/injection, schedule: Q01DX001 (ip), vehicle: water): 100 % of control
T/C (endpoint: median survival time, dose: 400.0 mg/kg/injection, schedule: Q01DX001 (oral), vehicle: water): 120 % of control
T/C (endpoint: median survival time, dose: 400.0 mg/kg/injection, schedule: Q01DX009 (ip), vehicle: saline): 223 % of control and 262 % of control and 311 % of control
T/C (endpoint: median survival time, dose: 400.0 mg/kg/injection, schedule: Q01DX009 (ip), vehicle: steriod suspending solution): 315 % of control
T/C (endpoint: median survival time, dose: 400.0 mg/kg/injection, schedule: Q01DX009 (oral), vehicle: saline): 205 % of control
T/C (endpoint: median survival time, dose: 400.0 mg/kg/injection, schedule: Q03HX008 (ip), vehicle: saline): 188 % of control
T/C (endpoint: median survival time, dose: 400.0 mg/kg/injection, schedule: Q03HX024 (ip), vehicle: saline): 88 % of control
T/C (endpoint: median survival time, dose: 400.0 mg/kg/injection, schedule: Q03HX024 (ip), vehicle: water): 100 % of control
T/C (endpoint: median survival time, dose: 400.0 mg/kg/injection, schedule: Q04DX003 (ip), vehicle: saline): 150 % of control
T/C (endpoint: median survival time, dose: 400.0 mg/kg/injection, schedule: Q04DX003 (ip), vehicle: water): 165 % of control
T/C (endpoint: median survival time, dose: 500.0 mg/kg/injection, schedule: Q01DX008 (ip), vehicle: water): 164 % of control
T/C (endpoint: median survival time, dose: 500.0 mg/kg/injection, schedule: Q01DX009 (ip), vehicle: saline): 211 % of control
T/C (endpoint: median survival time, dose: 600.0 mg/kg/injection, schedule: Q01DX009 (ip), vehicle: saline): 232 % of control
T/C (endpoint: median survival time, dose: 700.0 mg/kg/injection, schedule: Q01DX009 (ip), vehicle: saline): 156 % of control
T/C (endpoint: median survival time, dose: 800.0 mg/kg/injection, schedule: Q01DX001 (ip), vehicle: water): 120 % of control
T/C (endpoint: median survival time, dose: 800.0 mg/kg/injection, schedule: Q01DX009 (ip), vehicle: saline): 94 % of control
T/C (endpoint: median survival time, dose: 800.0 mg/kg/injection, schedule: Q01DX009 (oral), vehicle: saline): 122 % of control
T/C (endpoint: median survival time, dose: 800.0 mg/kg/injection, schedule: Q01DX009 (oral), vehicle: water): 94 % of control
T/C (endpoint: median survival time, dose: 800.0 mg/kg/injection, schedule: Q04DX003 (ip), vehicle: water): 200 % of control
T/C (endpoint: median survival time, dose: 800.0 mg/kg/injection, schedule: Q04DX003 (oral), vehicle: saline): 166 % of control
T/C (endpoint: median survival time, dose: 1600.0 mg/kg/injection, schedule: Q01DX001 (ip), vehicle: saline): 155 % of control
T/C (endpoint: median survival time, dose: 1600.0 mg/kg/injection, schedule: Q01DX001 (ip), vehicle: water): 155 % of control
T/C (endpoint: median survival time, dose: 1600.0 mg/kg/injection, schedule: Q04DX003 (ip), vehicle: water): 100 % of control
T/C (endpoint: median survival time, dose: 1600.0 mg/kg/injection, schedule: Q04DX003 (oral), vehicle: saline): 244 % of control
T/C (endpoint: median survival time, dose: 2000.0 mg/kg/injection, schedule: Q01DX001 (oral), vehicle: water): 150 % of control
